Test results taken from PubChem BioAssay (NCI).
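Five concentrations, 48 hours, 96-well plates. At the GI50, growth is halved. At the TGI there is no net growth.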

Columns and labels:
Assay in all cases: NCI-60 cell line screen, 48 h
IGROV1 ovarian = tested on: IGROV1 ovarian
HS 578T breast = tested on: HS 578T breast
OVCAR-8 ovarian = tested on: OVCAR-8 ovarian
SK-MEL-2 melanoma = tested on: SK-MEL-2 melanoma
RPMI-8226 leukemia = tested on: RPMI-8226 leukemia
OVCAR-5 ovarian = tested on: OVCAR-5 ovarian
SW-620 colon = tested on: SW-620 colon
SF-539 CNS = tested on: SF-539 CNS
CAKI-1 renal = tested on: CAKI-1 renal
MCF7 breast = tested on: MCF7 breast

Structure (SMILES) | TGI (IGROV1 ovarian) [µM] | TGI (HS 578T breast) [µM] | TGI (OVCAR-8 ovarian) [µM] | TGI (SK-MEL-2 melanoma) [µM] | TGI (RPMI-8226 leukemia) [µM] | TGI (OVCAR-5 ovarian) [µM] | TGI (SW-620 colon) [µM] | TGI (SF-539 CNS) [µM] | TGI (CAKI-1 renal) [µM] | TGI (MCF7 breast) [µM] | GI50 (IGROV1 ovarian) [µM] | GI50 (HS 578T breast) [µM] | GI50 (OVCAR-8 ovarian) [µM] | GI50 (SK-MEL-2 melanoma) [µM] | GI50 (RPMI-8226 leukemia) [µM] | GI50 (OVCAR-5 ovarian) [µM] | GI50 (SW-620 colon) [µM] | GI50 (SF-539 CNS) [µM] | GI50 (CAKI-1 renal) [µM] | GI50 (MCF7 breast) [µM]
C/C1=C\CC[C@@]2(C)O[C@@H]2C[C@@H](C2(C)CO2)CC/C(C)=C/CC1 (stereo not given in full) | > 100 | 46.3 | 39.6 | 71.8 | > 100 | 50 | > 100 | 46 | 39.9 | 37.1 |  |  |  |  |  |  |  |  |  | 
COc1cc(-c2cc(=O)c3cc4c(=O)cc(-c5cc(OC)c(OC)c(OC)c5)oc4cc3o2)cc(OC)c1OC | > 79.1 | 97.2 | > 100 | 41.3 | > 100 | > 100 | > 100 | > 100 | > 31.6 | > 100 |  |  |  |  |  |  |  |  |  | 
COC(=O)c1c2c(cc3c1CCC3)CCC2 | > 100 | > 100 | > 100 | 64.3 | 52.4 | > 100 | > 100 | > 100 | > 100 | > 100 |  |  |  |  |  |  |  |  |  | 
O=C(CNc1c(Cl)cccc1Cl)NC1C=Cc2ccc(S(=O)(=O)Nc3c(Cl)cccc3Cl)cc2C1=O (stereo not given) | > 100 | > 100 | > 100 | > 100 | > 100 | > 100 | > 100 | > 100 | > 100 | > 100 |  |  |  |  |  |  |  |  |  | 
Cc1cn(-c2cc(C(=O)Nc3cccc(-n4ccc5c(NC(=O)c6ccccc6)nccc54)c3)cc(C(F)(F)F)c2)cn1 | 23 | 1.73 | 2.99 | 11.9 | 4.02 | 14.6 | 1.78 | 1.51 | 2.99 | 2.39 | 0.6 | 0.252 | 0.419 | 0.342 | 0.426 | 0.802 | 0.39 | 0.332 | 0.52 | 0.361
CN(Cc1ccccc1)c1cc(=O)n(C)c(=O)[nH]1 |  | > 100 | > 100 | > 100 | > 100 | > 100 | > 100 | > 100 | > 100 | > 100 |  |  |  |  |  |  |  |  |  | 
CC(C)=CCC/C(C)=C/COC(C)(C)C1=CCC(C)CC1 (stereo not given) (tested in a mixture with another compound) | > 100 | > 100 | > 100 |  | > 100 | > 100 | > 100 | 29.3 | > 100 | > 100 |  |  |  |  |  |  |  |  |  | 
O=[N+]([O-])c1ccc(/C=C/c2cc(-c3ccccc3)nc3ccc4ccccc4c23)cc1 | > 100 | > 100 | > 100 |  | > 100 | > 100 | > 100 | > 100 | > 100 | > 100 |  |  |  |  |  |  |  |  |  | 
O=c1[nH]cnc2c1ncn2[C@@H]1C[C@@H]1CO | > 100 | > 100 | > 100 | > 100 |  | > 100 | > 100 | > 100 | > 100 | > 100 |  |  |  |  |  |  |  |  |  | 
Cc1ccc(CC[P+](=O)CCc2ccc(C)nc2)cn1 | > 100 | > 100 | > 100 |  | > 100 | > 100 | > 100 | > 100 | > 100 | > 100 |  |  |  |  |  |  |  |  |  | 
